Assay results from US10004761B2, “Malodor neutralizing composition” (priority 2016, dated 2018).

How the values were obtained:
[1] = tested on: hyaluronidase Type IV-S, from bovine testes (Hyase); experiment: Dische's assay (Method II) of HA degradation by Hyase with inhibitors; assay type: biochemical
Procedure: Method II (Dische's assay; detection of uronic acid residues): Assays were performed by following the procedures described in Dische Z. [J. Biol. Chem., 1947, 167, p. 189-198] and Dische and Rothschild [Anal Biochem., 1967, 21(1), p. 125-30]. In these assays, molecules containing the uronic acid residues found in the precipitate formed upon CPC additions, are re-solubilized and products formed by -sulfuric acid hydrolysis of these fragments are detected by a spectrophotometric assay employing carbazole chromagen reagent. In addition, small residues degraded off the HA chains that have not precipitated with the addition of CPC, can be detected by the carbazole assay performed on the solution, so as to detect all of the uronic acid content.
Evaluation of HA degradation by this method was generally performed as follows:
20 μL of a NAC stock solution, and 20 μL of the stock solutions of the other inhibitors were used in the assay.
200 μL of the HA stock solution were placed in each tube, for achieving a 1 mg HA per tube.
Twenty (20) μL of hyase and 20 μL of NAC were combined and incubated for 2 hours. Then 200 μL of HA (1 mg) were added to each tube and the mixture was incubated at room temperature for 24 hours. Thereafter, the tubes were heated for 2 minutes in boiling water bath and 8 mL of doubled distilled water were added to the tubes as preparation for the Dische's assay.
As per Dische's Assay, 100 μL of 3N NaCl and 0.5 mL of 10% CPC (cetylpyridinium chloride) were thereafter added to each tube and the mixture was incubated at 37° C. until flocculation-turbidity (resulting from precipitation of HA+CPC) could be observed. The mixture was centrifuged for 10 minutes at 10,000 g at room temperature, and the supernatant was thereafter separated from the obtained pellet.
The pellet was dissolved in 1 ml of CaCl2, and the obtained solution was incubated at 37° C. until complete dissolution of the pellet is obtained. A 2:1 v/v ethanol/ether mixture (8 ml) was thereafter added, and the mixture was intensively stirred (by vortex) and kept at −20° C. overnight. The obtained pellet was collected following a centrifugation for 10 minutes at 10,000 g. Then, distilled water (1 mL) was added to solubilize the pellet, followed by addition of 0.2 ml Carbazole 1%. The mixture was stirred thoroughly, and concentrated sulfuric acid (6 mL) was thereafter added.
The samples were transferred into tight closed tubes, placed for 10 minutes in a boiling water bath, and was thereafter cooled in ice until it reached room temperature.
The pink-violet color developed by the chromogen was measured using a spectrophotometer at 527 nm.
Ditch assay, as described hereinabove (Method II) was performed while using the following Hyase inhibitors:
The experiment was run at room temperature (23° C.). Hyase and Inhibitors were incubated first for 2 hours prior to the addition of HA. Blank tubes included no substrate (HA) and Control tubes included no enzyme, no inhibitor and HA (200 μL). Tubes 5 and 6 contained HA and Hyase with no inhibitor. Standard Solutions with no enzyme and no inhibitor and HA 50 μL and 10 μL were also tested, for calibration. % HA cleaved denotes the weight percent of HA that was degraded. % HA residue denotes the weight percent of non-degraded HA, and represents the % of Hyase inhibition.

chondroitinase ABC = experiment: HA gelation consistency (Method III) in the presence of Chondroitinase ABC; assay type: biochemical, Proteus vulgaris; details: Table 4: NAC 400 mg dry powder (20% final), HA 2 cc of 1%, Chondroitinase ABC 50 μL, 37° C.; cell wraps: Viscous liquid
Procedure: Method III (Viscosity of HA): HA at low concentrations (e.g., 1%) in aqueous solution forms a viscous colloidal hydrogel solution, which yields semi-solid gel particles at room temperature and a solid gel at 4° C.
HA degradation was evaluated using Method III, as described hereinabove.
HA state of gelation was studied in the presence of NAC and various HA-degrading enzymes, using the following Stock solutions:
The tested enzyme (50 μL) was placed in a tube, NAC (50 μL of the Stock solution, final concentration of about 3.3%) was added and the mixture was incubated for 2 hours at room temperature (23° C.). Then, 2 ml of HA 1% were added to each tube and tubes were further incubated at room temperature for additional 24 hours.
In a second set of experiments, NAC (50 μL of the Stock solution) was added to a tube containing 2 ml of HA 1%; and the tubes were incubated for 2 hours at room temperature. Then, the HA-degrading enzyme was added and tubes were incubated at room temperature for additional 24 hours. In control tubes 9 and 10 (containing only HA), 50 μL of water were added to achieve the same volume as the other tested tubes.
In another set of experiments, the effect of NAC powder, (at a final concentration of 20%), on HA gelation in the presence of Hyase or Chondroitinase ABC was tested. […]

[2] = Solubility of NAC crystals in water; assay type: physicochemical
Procedure: The solubility of NAC crystals in water was measured for different NAC concentrations, at different temperatures.

Q: Which “% HA degraded” value ([1]; 20 μL inhibitor stock incubated 2 h with 20 μL Hyase, then HA 200 μL, room temperature 24 h) does the source give for CC(=O)N[C@@H](CS)C(=O)O [NAC, N-acetyl L-cysteine] here?
A: 0%

Q: And the “inhibition of HA degradation” value ([1]; NAC final concentration of the incubate 2%, Tubes 11-12)?
A: completely inhibited HA degradation

Q: What about the “% of inhibition of HA degradation” value ([1]; derived from Table 1) of the same compound?
A: 100%

Q: What about the “% HA intact (precipitated)” value ([1]; represents % of Hyase inhibition, 20 μL inhibitor, 20 μL Hyase, HA 200 μL, room temperature 24 h) of the same compound?
A: 100%

Q: What about the Consistency (chondroitinase ABC) of the same compound?
A: Viscous

Q: What about the “Clearance (solubility of NAC crystals in water)” value (from here on “Clearance”) ([2]; NAC concentration 10%, at 4° C. (storage)) of the same compound?
A: Clear

Q: And the “Clearance” value ([2]; NAC concentration 10%, at 23° C., room temperature)?
A: Clear

Q: And the “Clearance” value ([2]; NAC concentration 10%, at 34-37° C., skin and body temperature)?
A: Clear

Q: And the “Clearance” value ([2]; NAC concentration 12%, at 4° C. (storage))?
A: Clear

Q: What about the “Clearance” value ([2]; NAC concentration 12%, at 23° C., room temperature) of the same compound?
A: Clear

Q: What about the “Clearance” value ([2]; NAC concentration 12%, at 34-37° C., skin and body temperature) of the same compound?
A: Clear

Q: And the “Clearance” value ([2]; NAC concentration 14%, at 4° C. (storage))?
A: Clear

Q: What about the “Clearance” value ([2]; NAC concentration 14%, at 23° C., room temperature) of the same compound?
A: Clear

Q: And the “Clearance” value ([2]; NAC concentration 14%, at 34-37° C., skin and body temperature)?
A: Clear

Q: What about the “Clearance” value ([2]; NAC concentration 16%, at 4° C. (storage), cell wraps: Minimal crystals appearance) of the same compound?
A: Minimal crystals

Q: What about the “Clearance” value ([2]; NAC concentration 16%, at 23° C., room temperature) of the same compound?
A: Clear

Q: What about the “Clearance” value ([2]; NAC concentration 16%, at 34-37° C., skin and body temperature) of the same compound?
A: Clear

Q: What about the “Clearance” value ([2]; NAC concentration 18%, at 4° C. (storage)) of the same compound?
A: More crystals

Q: And the “Clearance” value ([2]; NAC concentration 18%, at 23° C., room temperature, cell wraps: Minimal crystals appearance)?
A: Minimal

Q: And the “Clearance” value ([2]; NAC concentration 18%, at 34-37° C., skin and body temperature)?
A: Clear

Q: What about the “Clearance” value ([2]; NAC concentration 20%, at 4° C. (storage)) of the same compound?
A: More crystals

Q: What about the “Clearance” value ([2]; NAC concentration 20%, at 23° C., room temperature) of the same compound?
A: More crystals

Q: And the “Clearance” value ([2]; NAC concentration 20%, at 34-37° C., skin and body temperature)?
A: Clear

Q: And the “NAC concentration completely soluble in water” value ([2]; at 23° C. and at lower temperatures)?
A: ≤ 15%

Q: And the “concentration at which NAC solubilization reaches saturation” value ([2]; at room temperature, presumed from crystals in the HA gel tubes)?
A: 20%

Q: And the “NAC concentration completely soluble in water” value ([2]; from 34° C. and up)?
A: ≥ 20%
